Experimental data as given in US12331040B2 (Karyopharm Therapeutics Inc., priority 2013, dated 2025).

Assays:
Assay in all cases: MTT cell proliferation assay
Type in all cases: cell-based
AU-565 cells = conditions: Homo sapiens, AU565, 72-hour MTT
In short: (§1)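 72-h MTT proliferation; 5,000-10,000 cells/well, overnight attachment; cpd 1 nM–30 μM, 8 concs; MTT ~4 h, formazan solubilized, OD490; % inhibition vs negative control, mean±SE, usually duplicate.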

NCI-H28 cells = conditions: Homo sapiens, 72-hour MTT
In short: as §1

HEL.92.1.7 cells = conditions: Homo sapiens, 72-hour MTT
In short: as §1

HT1080 cells = conditions: Homo sapiens, HT-1080, 72-hour MTT
In short: as §1

LN18 cells = conditions: Homo sapiens, LN-18, 72-hour MTT
In short: as §1

RWPE-1 cells = conditions: Homo sapiens, 72-hour MTT
In short: as §1

IMR-90 cells = conditions: Homo sapiens, 72-hour MTT
In short: as §1

SW-48 cells = conditions: Homo sapiens, SW48, 72-hour MTT
In short: as §1

HS-Sultan cells = conditions: 72-hour MTT
In short: as §1

HCT116 cells = conditions: Homo sapiens, HCT-116, 72-hour MTT
In short: as §1

BT-549 cells = conditions: Homo sapiens, 72-hour MTT
In short: as §1

Toledo cells = conditions: Homo sapiens, 72-hour MTT
In short: as §1

NCI-H226 cells = conditions: Homo sapiens, 72-hour MTT
In short: as §1

NCI-H1563 cells = conditions: Homo sapiens, 72-hour MTT
In short: as §1

TF-1 cells = conditions: Homo sapiens, 72-hour MTT
In short: as §1

AML-193 cells = conditions: 72-hour MTT
In short: as §1

NCI-H747 cells = conditions: Homo sapiens, 72-hour MTT
In short: as §1

MO7e cells = conditions: 72-hour MTT
In short: as §1

U-937 cells = conditions: Homo sapiens, 72-hour MTT
In short: as §1

NCI-H2122 cells = conditions: Homo sapiens, 72-hour MTT
In short: as §1

KG-1 cells = conditions: Homo sapiens, 72-hour MTT
In short: as §1

NCI-H1650 cells = conditions: Homo sapiens, 72-hour MTT
In short: as §1

HCT116.1 cells = conditions: 72-hour MTT
In short: as §1

PATU-8988S cells = conditions: PaTuÂ 8988s, 72-hour MTT
In short: as §1

MDA-MB-175 cells = conditions: 72-hour MTT
In short: as §1

NCI-H889 cells = conditions: Homo sapiens, 72-hour MTT
In short: as §1

PANC-10.05 cells = conditions: Homo sapiens, Panc1005, 72-hour MTT
In short: as §1

Raji cells = conditions: Homo sapiens, 72-hour MTT
In short: as §1

RKO cells = conditions: Homo sapiens, 72-hour MTT
In short: as §1

NCI-H820 cells = conditions: 72-hour MTT
In short: as §1

SW-403 cells = conditions: Homo sapiens, 72-hour MTT
In short: as §1

HH cells = conditions: Homo sapiens, 72-hour MTT
In short: as §1

MV-4-11 cells = conditions: Homo sapiens, MV4-11, 72-hour MTT
In short: as §1

A549 cells = conditions: Homo sapiens, 72-hour MTT
In short: as §1

NHEK cells = conditions: 72-hour MTT
In short: as §1

Daudi cells = conditions: Homo sapiens, 72-hour MTT
In short: as §1

U118MG cells = conditions: Homo sapiens, U-118-MG, 72-hour MTT
In short: as §1

Colo-201 cells = conditions: Homo sapiens, 72-hour MTT
In short: as §1

Nc1ccc(/C=C/C(=O)NCc2cc3cc(-c4ccc(C(=O)N5CCC(F)(F)CC5)cn4)cc(C(F)(F)F)c3o2)cn1 [Compound 585, (E)-3-(6-aminopyridin-3-yl)-N-((5-(5-(4,4-difluoropiperidine-1-carbonyl)pyridin-2-yl)-7-(trifluoromethyl)benzofuran-2-yl)methyl)acrylamide]
IC50 (AU-565 cells): 140 nM
IC50 (NCI-H28 cells): 200 nM
IC50 (HEL.92.1.7 cells): 120 nM
IC50 (HT1080 cells): 210 nM
IC50 (LN18 cells): 1660 nM
IC50 (RWPE-1 cells): 4 nM
IC50 (IMR-90 cells): 4000 nM
IC50 (SW-48 cells): 170 nM
IC50 (HS-Sultan cells): 200 nM
IC50 (HCT116 cells): 9820 nM
IC50 (BT-549 cells): 1530 nM
IC50 (Toledo cells): 50 nM
IC50 (NCI-H226 cells): 6780 nM
IC50 (NCI-H1563 cells): 390 nM
IC50 (TF-1 cells): 60 nM
IC50 (AML-193 cells): 30 nM
IC50 (NCI-H747 cells): 590 nM
IC50 (MO7e cells): 20 nM
IC50 (U-937 cells): 260 nM
IC50 (NCI-H2122 cells): 5810 nM
IC50 (KG-1 cells): 150 nM
IC50 (NCI-H1650 cells): 530 nM
IC50 (HCT116.1 cells): > 10000 nM
IC50 (PATU-8988S cells): 470 nM
IC50 (MDA-MB-175 cells): > 10000 nM
IC50 (NCI-H889 cells): 60 nM
IC50 (PANC-10.05 cells): 870 nM
IC50 (Raji cells): 90 nM
IC50 (RKO cells): 50 nM
IC50 (NCI-H820 cells): 2840 nM
IC50 (SW-403 cells): 380 nM
IC50 (HH cells): 90 nM
IC50 (MV-4-11 cells): 90 nM
IC50 (A549 cells): 570 nM
IC50 (NHEK cells): 10400 nM
IC50 (Daudi cells): 40 nM
IC50 (U118MG cells): 50 nM
IC50 (Colo-201 cells): 560 nM
